Assay results from the supplement of paper PMC10733146.

Key:
Experiment in all cases: viability relative to DMSO control (fraction); higher = less drug effect (more viable cells)
Details in all cases: 48 h
Etoposide = compound: COc1cc([C@@H]2c3cc4c(cc3[C@@H](O[C@@H]3O[C@@H]5CO[C@@H](C)O[C@H]5[C@H](O)[C@H]3O)[C@H]3COC(=O)[C@H]23)OCO4)cc(OC)c1O [Etoposide]
Outline: (§1)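 Cells were incubated for 48 h at 37 °C and 5% CO2 in RPMI-1640 with penicillin/streptomycin, L-glutamine and human serum, at 4 × 10^4 cells per well in 384-well plates with compounds pre-plated at five concentrations, one well each. These were primary mononuclear tumour cells, fresh or cryopreserved, Ficoll-isolated from blood or bone marrow or obtained from processed lymph node. Viability values are CellTiter-Glo luminescence relative to the median of 16 inner DMSO wells.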

Venetoclax = compound: CC1(C)CCC(CN2CCN(c3ccc(C(=O)NS(=O)(=O)c4ccc(NCC5CCOCC5)c([N+](=O)[O-])c4)c(Oc4cnc5[nH]ccc5c4)c3)CC2)=C(c2ccc(Cl)cc2)C1 [Venetoclax]
Outline: as §1

EPZ-6438 = compound: CCN(c1cc(-c2ccc(CN3CCOCC3)cc2)cc(C(=O)NCc2c(C)cc(C)[nH]c2=O)c1C)C1CCOCC1 [EPZ-6438]
Outline: as §1

Everolimus = compound: CO[C@H]1C[C@@H]2CC[C@@H](C)[C@@](O)(O2)C(=O)C(=O)N2CCCC[C@H]2C(=O)O[C@H]([C@H](C)C[C@@H]2CC[C@@H](OCCO)[C@H](OC)C2)CC(=O)[C@H](C)/C=C(\C)[C@@H](O)[C@@H](OC)C(=O)[C@H](C)C[C@H](C)/C=C/C=C/C=C/1C [Everolimus]
Outline: as §1

[1] = compound: O=C(Nc1ccc2[nH]nc(-c3ccncc3)c2c1)[C@@H]1CCN(CC(=O)N2CCN(c3ccc(-c4ncccn4)cc3)CC2)C1
Outline: as §1

Palbociclib = compound: CC(=O)c1c(C)c2cnc(Nc3ccc(N4CCNCC4)cn3)nc2n(C2CCCC2)c1=O [Palbociclib]
Outline: as §1

Chlorambucil = compound: O=C(O)CCCc1ccc(N(CCCl)CCCl)cc1 [Chlorambucil]
Outline: as §1

Entospletinib = compound: c1cn2cc(-c3ccc4cn[nH]c4c3)nc(Nc3ccc(N4CCOCC4)cc3)c2n1 [Entospletinib]
Outline: as §1

SGC 0946 = compound: CC(C)N(CCCNC(=O)Nc1ccc(C(C)(C)C)cc1)C[C@H]1O[C@@H](n2cc(Br)c3c(N)ncnc32)[C@H](O)[C@@H]1O [SGC 0946]
Outline: as §1

Barasertib = compound: CCN(CCCOc1ccc2c(Nc3cc(CC(=O)Nc4cccc(F)c4)[nH]n3)ncnc2c1)CCOP(=O)(O)O [Barasertib]
Outline: as §1

Filgotinib = compound: O=C(Nc1nc2cccc(-c3ccc(CN4CCS(=O)(=O)CC4)cc3)n2n1)C1CC1 [Filgotinib]
Outline: as §1

Duvelisib = compound: C[C@H](Nc1ncnc2nc[nH]c12)c1cc2cccc(Cl)c2c(=O)n1-c1ccccc1 [Duvelisib]
Outline: as §1

Thalidomide = compound: O=C1CCC(N2C(=O)c3ccccc3C2=O)C(=O)N1 [Thalidomide]
Outline: as §1

Q: Which results are given for primary B-PLL patient cells (S016)?
A: viability (Etoposide; 0.032 µM): 1.14; viability (Etoposide; 0.16 µM): 0.886; viability (Etoposide; 0.8 µM): 0.762; viability (Etoposide; 4 µM): 0.362; viability (Etoposide; 20 µM): 0.0933; viability (Venetoclax; 0.00064 µM): 0.981; viability (Venetoclax; 0.0032 µM): 0.834; viability (Venetoclax; 0.016 µM): 0.362; viability (Venetoclax; 0.08 µM): 0.126; viability (Venetoclax; 0.4 µM): 0.0603; viability (EPZ-6438; 0.024 µM): 1.21; viability (EPZ-6438; 0.12 µM): 1.14; viability (EPZ-6438; 0.6 µM): 1.1; viability (EPZ-6438; 3 µM): 1.01; viability (EPZ-6438; 15 µM): 1.06; viability (Everolimus; 0.0032 µM): 0.735; viability (Everolimus; 0.016 µM): 0.647; viability (Everolimus; 0.08 µM): 0.665; viability (Everolimus; 0.4 µM): 0.659; viability (Everolimus; 2 µM): 0.697; viability ([1]; 0.008 µM): 1.02; viability ([1]; 0.04 µM): 0.919; viability ([1]; 0.2 µM): 0.953; viability ([1]; 1 µM): 0.94; viability ([1]; 5 µM): 0.869; viability (Palbociclib; 0.024 µM): 0.982; viability (Palbociclib; 0.12 µM): 0.886; viability (Palbociclib; 0.6 µM): 0.89; viability (Palbociclib; 3 µM): 0.625; viability (Palbociclib; 15 µM): 0.457; viability (Chlorambucil; 0.032 µM): 0.939; viability (Chlorambucil; 0.16 µM): 0.916; viability (Chlorambucil; 0.8 µM): 0.933; viability (Chlorambucil; 4 µM): 0.601; viability (Chlorambucil; 20 µM): 0.088; viability (Entospletinib; 0.024 µM): 0.927; viability (Entospletinib; 0.12 µM): 0.919; viability (Entospletinib; 0.6 µM): 0.934; viability (Entospletinib; 3 µM): 0.947; viability (Entospletinib; 15 µM): 0.864; viability (SGC 0946; 0.024 µM): 1; viability (SGC 0946; 0.12 µM): 1.04; viability (SGC 0946; 0.6 µM): 0.946; viability (SGC 0946; 3 µM): 0.922; viability (SGC 0946; 15 µM): 0.435; viability (Barasertib; 0.0008 µM): 0.883; viability (Barasertib; 0.004 µM): 0.984; viability (Barasertib; 0.02 µM): 0.962; viability (Barasertib; 0.1 µM): 1.01; viability (Barasertib; 0.5 µM): 1.03; viability (Filgotinib; 0.024 µM): 0.977; viability (Filgotinib; 0.12 µM): 1; viability (Filgotinib; 0.6 µM): 0.977; viability (Filgotinib; 3 µM): 1.2; viability (Filgotinib; 15 µM): 0.221; viability (Duvelisib; 0.0016 µM): 0.788; viability (Duvelisib; 0.008 µM): 0.821; viability (Duvelisib; 0.04 µM): 0.708; viability (Duvelisib; 0.2 µM): 0.675; viability (Duvelisib; 1 µM): 0.674; viability (Thalidomide; 0.032 µM): 0.947; viability (Thalidomide; 0.16 µM): 0.931; viability (Thalidomide; 0.8 µM): 1.04; viability (Thalidomide; 4 µM): 1.05; viability (Thalidomide; 20 µM): 1.04

Q: How did the viability (Etoposide; 0.032 µM) turn out when primary BL patient cells (S005) was run?
A: 1

Q: And the viability (Etoposide; 0.16 µM)?
A: 1.22

Q: And the viability (Etoposide; 0.8 µM)?
A: 1.3

Q: What about the viability (Etoposide; 4 µM) of the same test system?
A: 1.05

Q: What about the viability (Etoposide; 20 µM) of the same test system?
A: 1.12

Q: And the viability (Venetoclax; 0.00064 µM)?
A: 0.989

Q: What about the viability (Venetoclax; 0.0032 µM) of the same test system?
A: 0.904

Q: What about the viability (Venetoclax; 0.016 µM) of the same test system?
A: 0.944

Q: And the viability (Venetoclax; 0.08 µM)?
A: 0.982

Q: What about the viability (Venetoclax; 0.4 µM) of the same test system?
A: 0.994

Q: What about the viability (EPZ-6438; 0.024 µM) of the same test system?
A: 1.15

Q: What about the viability (EPZ-6438; 0.12 µM) of the same test system?
A: 1.18

Q: And the viability (EPZ-6438; 0.6 µM)?
A: 1.04

Q: And the viability (EPZ-6438; 3 µM)?
A: 1.08

Q: And the viability (EPZ-6438; 15 µM)?
A: 0.967

Q: What about the viability (Everolimus; 0.0032 µM) of the same test system?
A: 0.819

Q: And the viability (Everolimus; 0.016 µM)?
A: 0.837

Q: And the viability (Everolimus; 0.08 µM)?
A: 0.787

Q: And the viability (Everolimus; 0.4 µM)?
A: 0.848

Q: What about the viability (Everolimus; 2 µM) of the same test system?
A: 0.8

Q: What about the viability ([1]; 0.008 µM) of the same test system?
A: 1.02

Q: And the viability ([1]; 0.04 µM)?
A: 1.08

Q: What about the viability ([1]; 0.2 µM) of the same test system?
A: 1.02

Q: And the viability ([1]; 1 µM)?
A: 0.993

Q: And the viability ([1]; 5 µM)?
A: 0.935

Q: What about the viability (Palbociclib; 0.024 µM) of the same test system?
A: 0.948

Q: And the viability (Palbociclib; 0.12 µM)?
A: 1.16

Q: And the viability (Palbociclib; 0.6 µM)?
A: 0.873

Q: And the viability (Palbociclib; 3 µM)?
A: 1.06

Q: And the viability (Palbociclib; 15 µM)?
A: 0.825

Q: And the viability (Chlorambucil; 0.032 µM)?
A: 0.967

Q: And the viability (Chlorambucil; 0.16 µM)?
A: 0.887

Q: And the viability (Chlorambucil; 0.8 µM)?
A: 0.974

Q: What about the viability (Chlorambucil; 4 µM) of the same test system?
A: 1.02

Q: And the viability (Chlorambucil; 20 µM)?
A: 0.918

Q: What about the viability (Entospletinib; 0.024 µM) of the same test system?
A: 1.01

Q: And the viability (Entospletinib; 0.12 µM)?
A: 0.996

Q: And the viability (Entospletinib; 0.6 µM)?
A: 1.06

Q: And the viability (Entospletinib; 3 µM)?
A: 1.08

Q: What about the viability (Entospletinib; 15 µM) of the same test system?
A: 0.986

Q: What about the viability (SGC 0946; 0.024 µM) of the same test system?
A: 1.08

Q: And the viability (SGC 0946; 0.12 µM)?
A: 1.09

Q: What about the viability (SGC 0946; 0.6 µM) of the same test system?
A: 0.927

Q: And the viability (SGC 0946; 3 µM)?
A: 1.01

Q: What about the viability (SGC 0946; 15 µM) of the same test system?
A: 0.712

Q: What about the viability (Barasertib; 0.0008 µM) of the same test system?
A: 1.38

Q: And the viability (Barasertib; 0.004 µM)?
A: 1.33

Q: And the viability (Barasertib; 0.02 µM)?
A: 0.929

Q: And the viability (Barasertib; 0.1 µM)?
A: 0.856

Q: What about the viability (Barasertib; 0.5 µM) of the same test system?
A: 0.917

Q: What about the viability (Filgotinib; 0.024 µM) of the same test system?
A: 0.996

Q: What about the viability (Filgotinib; 0.12 µM) of the same test system?
A: 0.835

Q: What about the viability (Filgotinib; 0.6 µM) of the same test system?
A: 0.971

Q: And the viability (Filgotinib; 3 µM)?
A: 0.909

Q: What about the viability (Filgotinib; 15 µM) of the same test system?
A: 0.469

Q: What about the viability (Duvelisib; 0.0016 µM) of the same test system?
A: 1.01

Q: And the viability (Duvelisib; 0.008 µM)?
A: 1.03

Q: What about the viability (Duvelisib; 0.04 µM) of the same test system?
A: 0.93

Q: What about the viability (Duvelisib; 0.2 µM) of the same test system?
A: 0.981

Q: And the viability (Duvelisib; 1 µM)?
A: 0.831

Q: And the viability (Thalidomide; 0.032 µM)?
A: 0.924

Q: What about the viability (Thalidomide; 0.16 µM) of the same test system?
A: 0.966

Q: What about the viability (Thalidomide; 0.8 µM) of the same test system?
A: 0.953

Q: What about the viability (Thalidomide; 4 µM) of the same test system?
A: 0.98

Q: What about the viability (Thalidomide; 20 µM) of the same test system?
A: 0.919
